Measured values reported in patent US20240252576A1, “Application Method of Radix Paeoniae Alba and Dendrobium Officinale for Preparing Drug for Treatment of Hypertension” (Hangzhou Danhe Pharmaceutical Co., Ltd., priority 2018, published 2024).

What was measured:
[1] = test system: normal Wistar rat; experiment: Experiment 3: blood pressure effect of the sample of the Embodiment 1 on normal rats; format: in vivo; details: 5 mg medicine/kg body weight; for diastolic pressure / systolic pressure: normal Wistar rats
Protocol: Rat: 12 Weeks Old Normal Wistar Rat.
Rat blood pressure measurement: BP-98 A type non-invasive tail arterial blood pressure measuring instrument, Softron Co., Ltd. (Japan).
Grouping treatment: All rats were adaptively fed for a week, measured with blood pressure and weight, and set into groups. […] Ten rats for each group, treating for 2 weeks.
Blood pressure measurement: The Rats were pre-heated to 38° C. for 5-10 mins to avoid less blood flow of the tail that affects the pressure measurement. Three measurements are continuously carried out as the rat was in an awake and quiet state. The average value of the 3 measurements was considered as the blood pressure of the rat. The blood pressure is measured prior to the treatment and 2 hours after each administration every week.

[2] = test system: adult sitting and lying blood pressure; details: adult daily dosage of 150-300 mg, cited from earlier work
[3] = test system: hereditary hypertension rats (SHR); experiment: Experiment 2: hypotensive effect of the sample of the Embodiment 1 on SHR, tail arterial blood pressure; format: in vivo, rat; details: 15 mg/Kg body weight
Excerpt: Rats: old age (over 48 weeks old) hereditary hypertension rats (SHR) and the normal controls were Wistar rats. Rat blood pressure measurement: BP-98 A type non-invasive tail arterial blood pressure measuring instrument, Softron Co., Ltd. (Japan). 1. Grouping treatment: All rats were adaptively fed for a week, measured with blood pressure and weight, and set into groups. SHR rats were grouped: sample of the Embodiment 1 (alcohol-water dual-extraction of Radix Paeoniae Alba with Dendrobium Officinale powder added)-large dosage group for the dosage of 3.5 g/kg body weight, sample of the Embodiment 1-medium dosage group for the dosage of 1.4 g/kg body weight, sample of the Embodiment 1-small dosage group for the dosage of 0.35 g/kg body weight, Dendrobium Officinale powder for the dosage of raw medicine of 0.8 g/kg body weight (which is the same as the raw medicine amount of the Dendrobium Officinale powder (0.8 g/kg body weight) contained in 1.4 g/Kg body weight of the sample of the Embodiment 1), alcohol-water dual-extraction of Radix Paeoniae Alba for the dosage of raw medicine of 0.6 g/kg body weight (which is the same as the raw medicine amount of the Radix Paeoniae Alba (0.6 g/kg body weight) contained in 1.4 g/Kg body weight of the sample of the Embodiment 1); utilizing gastric infusion; hypertension model control group receives equal amount of physiological saline; Irbesartan control group receives 15 mg/Kg body weight of Irbesartan; and normal control group receives equal amount of physiological saline. Each group has 8 rats. The treatment last for 3 weeks (multiple of 3-12 weeks of treatments are performed, the results can be repeated, and typical experimental results are reported below). 2. Blood pressure measurement: The Rats were pre-heated to 38° C. for 5-10 mins to avoid less blood flow of the tail that affects the pressure measurement. Three measurements are continuously carried out as the rat was in an awake and quiet state. The average value of the 3 measurements was considered as the blood pressure of the rat.

[4] = test system: hereditary hypertension rats (SHR); experiment: Experiment 1: hypotensive effect of alcohol-water dual-extraction of Radix Paeoniae Alba on SHR, tail arterial blood pressure; format: in vivo, rat; details: 15 mg/Kg body weight
Excerpt: Rats: old age (over 48 weeks old) hereditary hypertension rats (SHR) and the normal controls were Wistar rats. Rat blood pressure measurement: BP-98 A type non-invasive tail arterial blood pressure measuring instrument, Softron Co., Ltd. (Japan). Grouping treatment: All rats were adaptively fed for a week, measured with blood pressure and weight, and set into groups. SHR rats were divided into alcohol-water dual-extraction of Radix Paeoniae Alba large dosage group for the dosage of 3.2 g/kg body weight, alcohol-water dual-extraction of Radix Paeoniae Alba medium dosage group for the dosage of 0.8 g/kg body weight, alcohol-water dual-extraction of Radix Paeoniae Alba small dosage group for the dosage of 0.2 g/kg body weight, alcohol extraction of Radix Paeoniae Alba group for the dosage of 0.8 g/kg body weight, water extraction of Radix Paeoniae Alba group for the dosage of 0.8 g/kg body weight, Radix Paeoniae Alba powder group for the dosage of 0.8 g/kg body weight; utilizing gastric infusion; hypertension model control group receives equal amount of physiological saline; Irbesartan control group receives 15 mg/Kg body weight of Irbesartan; and normal control group receives equal amount of physiological saline. Each group has 8 rats. The treatment last for 3 weeks (multiple of 3-12 weeks of treatments are performed, the results can be repeated, and typical experimental results are reported below). Blood pressure measurement: The Rats were pre-heated to 38° C. for 5-10 mins to avoid less blood flow of the tail that affects the pressure measurement. Three measurements are continuously carried out as the rat was in an awake and quiet state. The average value of the 3 measurements was considered as the blood pressure of the rat.

[5] = test system: adult sitting and lying blood pressure; experiment: Clinical test data on the instructions of Irbesartan (Aprovel); format: in vivo, human; details: 150-300 mg daily for adults
[6] = Treated for 1 Week, 2 hours after administration
[7] = Treated for 2 Weeks, 2 hours after administration
[8] = sitting and lying blood pressure
[9] = Treat 3 weeks, 24 hrs, 15 mg/kg
[10] = Treated for 3 Weeks, 2 hours after administration

## CCOC(=O)C1=C(COCCN)NC(C)=C(C(=O)OC)C1c1ccccc1Cl (stereo not shown) [Norvasc, amlodipine besylate]
[1]
  hypotensive effect to the normal blood pressure rats: triggered relatively great hypotensive effect
[1]; Before Treatment
  diastolic pressure: 99.2 ± 4.87 mmHg
  systolic pressure: 137.6 ± 5.46 mmHg
[1]; [6]
  diastolic pressure: 71.8 ± 3.76 mmHg
  systolic pressure: 95.7 ± 4.69 mmHg
[1]; [7]
  diastolic pressure: 74.5±2.76 mmHg
  systolic pressure: 99.2±5.75 mmHg

## CCCCC1=NC2(CCCC2)C(=O)N1Cc1ccc(-c2ccccc2-c2nnn[nH]2)cc1 [Irbesartan]
[2]
  ratio of the hypotensive valley and peak: 60-80%
[2]; [8]
  average hypotensive valley value, diastolic: 5-8 mmHg
  average hypotensive valley value, systolic: 8-13 mmHg
[3]; Before Treatment
  diastolic pressure: 166.7 ± 4.21 ^ mmHg
  systolic pressure: 215.3 ± 5.87 ^ mmHg
[3]; Treat 1 time, 2 hrs
  diastolic pressure: 150.1 ± 3.25 mmHg
  systolic pressure: 182.4 ± 3.89 mmHg
[3]; Treat 1 time, 24 hrs
  diastolic pressure: 156.6 ± 3.57^Δ mmHg
  systolic pressure: 198.7 ± 3.61 mmHg
[3]; Treat 1 week, 2 hrs
  diastolic pressure: 149.7 ± 2.36 mmHg
  systolic pressure: 181.2 ± 3.34 mmHg
[3]; Treat 1 week, 24 hrs
  diastolic pressure: 155.3 ± 2.36 mmHg
  systolic pressure: 197.8 ± 2.87 mmHg
[3]; Treat 2 weeks, 2 hrs
  diastolic pressure: 147.4 ± 3.46 mmHg
  systolic pressure: 177.5 ± 2.23 mmHg
[3]; Treat 2 weeks, 24 hrs
  diastolic pressure: 156.2 ± 3.25 mmHg
  systolic pressure: 199.9 ± 2.36 mmHg
[3]; Treat 3 weeks, 2 hrs, 15 mg/kg
  diastolic pressure: 149.5±3.24 mmHg
  systolic pressure: 178.9±3.87 mmHg
[3]; [9]
  diastolic pressure: 154.1±2.08 mmHg
  systolic pressure: 198.7±2.24 mmHg
[4]; Before Treatment
  diastolic pressure: 166.7 ± 4.21 ^ mmHg
  systolic pressure: 215.2 ± 4.45 ^ mmHg
[4]; First Treated
  diastolic pressure: 155.2 ± 3.25 mmHg
  systolic pressure: 181.6 ± 3.12 mmHg
[4]; [6]
  diastolic pressure: 150.8 ± 2.89 mmHg
  systolic pressure: 180.4 ± 3.56 mmHg
[4]; [7]
  diastolic pressure: 151.8 ± 2.71 mmHg
  systolic pressure: 178.6 ± 2.04 mmHg
[4]; [10]
  diastolic pressure: 152.9 ± 2.89 mmHg
  systolic pressure: 177.8 ± 2.12 mmHg
[5]; calculated from intermediate values 6.5 mmHg/0.7
  hypotensive extent in the hypotensive peak, diastolic pressure: 9.29 mmHg
[5]; calculated from intermediate values 10.5 mmHg/0.7
  hypotensive extent in the hypotensive peak, systolic pressure: 15.00 mmHg
